Results: article PMC4102551, “Screening and Characterisation of Antimicrobial Properties of Semisynthetic Betulin Derivatives” (PLoS ONE, 2014)
Values joined by “and” are separate entries in the source; they are usually repeats but may differ in a detail not shown here. Equal entries are not always repeated.

Columns and labels:
E. coli ATCC 25922 = assay: Broth microdilution assay, E. coli; format: cell-based, Escherichia coli; conditions: 50 µM, 24 h, inhibition of growth, mean ± SD
Procedure: (§1) Clinically used antimicrobial agents were selected based on international guidelines for antimicrobial testing and were utilised as reference compounds in the antimicrobial assays. The compounds were purchased from Sigma, Fluka and ICN Biomedicals. Stock solutions of the reference compounds were prepared either in double distilled sterile MilliQ water or in DMSO. Water solutions were sterilised through a 0.22 µm filter (VWR International). […] During the primary screening, these reference compounds were used as positive controls at the determined MIC on every plate.
(§2) Gram-negative strains Escherichia coli (ATCC 25922), Enterobacter aerogenes (ATCC 13048) and Pseudomonas aeruginosa (ATCC 27853), Gram-positive strains Staphylococcus aureus (ATCC 25923) and Enterococcus faecalis (ATCC 29212), and fungal strain Candida albicans (ATCC 90028) were obtained from Microbiologics Inc., and used for the antimicrobial screening. Strains were selected according to the guidelines set for clinical laboratories by Clinical and Laboratory Standards Institute [CLSI, formerly National Committee on Clinical Laboratory Standards [22]] and the European Committee on Antimicrobial Susceptibility Testing (EUCAST). Bacterial strains were grown on Mueller Hinton II Agar (MHA) (BBL, BD) and Mueller Hinton II broth (MHB) (BBL, BD), whereas Candida was initiated on Sabouraud Dextrose Agar (SDA) (Difco, BD) plates. Media were prepared into MilliQ water according to manufacturer’s instruction and autoclaved at 121°C for 15 min. Bacteria were plated on MHA plates and incubated at 37°C for 16–18 h. Bacterial suspension for the assays was prepared by subculturing the bacteria into MHB and by incubating at 37°C for 16–20 h at 110 rpm prior to the assay. Candida strain was grown on SDA plates at 27°C for 16–18 h and suspended into sterile 0.9% saline for the assay.
(§3) Antimicrobial screening assays were performed by broth microdilution method following the guidelines of CLSI and EUCAST. Bacterial suspensions were prepared as mentioned earlier and diluted with MHB to obtain a final inoculum of 5×10^5 colony-forming units (cfu)/mL in the assay for all the bacteria (based on OD620 values previously calibrated against plate counts). Candida suspension was prepared into sterile 0.9% saline solution as stated earlier. […] Assays were carried out in clear 96-well microtitre plates and initiated by dispensing an equal volume of microbial suspension and sample solution diluted into the assay medium into the wells. The plates were incubated for 24 h at 37°C (for Candida the incubation was at 35°C for 48 h) with agitation. Absorbance was measured at 620 nm with Victor plate reader (Wallac 1420, Perkin Elmer) at 0, 4 and 24 h with the bacteria, and at 0, 24 and 48 h with Candida. The antimicrobial activity of the samples was calculated from the absorbance values by comparing to the controls, and expressed as a percentage inhibition of growth. All the betulin derivatives were first assayed at the single concentration of 50 µM (two separate experiments, each with three replicates). […] The MIC90 value was expressed as the lowest concentration of compound that inhibited the microbial growth by >90%. The MIC90 results are means of three replicates from two separate experiments.

P. aeruginosa ATCC 27853 = assay: Broth microdilution assay, P. aeruginosa; format: cell-based, Pseudomonas aeruginosa; conditions: 50 µM, 24 h, inhibition of growth, mean ± SD
Procedure: as §1, §2, §3

S. aureus ATCC 25923 = assay: Broth microdilution assay, S. aureus; format: cell-based, Staphylococcus aureus; conditions: 50 µM, 24 h, inhibition of growth, mean ± SD
Procedure: as §1, §2, §3

E. faecalis ATCC 29212 = assay: Broth microdilution assay, E. faecalis; format: cell-based, Enterococcus faecalis; conditions: 50 µM, 24 h, inhibition of growth, mean ± SD
Procedure: as §1, §2, §3

E. aerogenes ATCC 13048 = assay: Broth microdilution assay, E. aerogenes; format: cell-based, Enterobacter aerogenes; conditions: 50 µM, 24 h, inhibition of growth, mean ± SD
Procedure: as §1, §2, §3

C. albicans ATCC 90028 = assay: Broth microdilution assay, C. albicans; format: cell-based, Candida albicans; conditions: 50 µM, 48 h at 35°C, inhibition of growth, mean ± SD
Procedure: as §1, §2, §3

Huh-7 cells = assay: in vitro; format: cell-based, human; conditions: 50 µM, 24 h exposure, ATP content, 5% FBS
Procedure: Huh-7 cells (derived from human hepatocellular carcinoma) were obtained as a gift from Prof. Ralf Bartenschlager (University of Heidelberg, Germany) and used for assessing the cytotoxicity against mammalian cells. HL cells (a heteroploid cell line used for propagating respiratory viruses) were used as a host cell line in the host-pathogen co-culture assay. […] Both cell lines were cultured at 37°C, 5% CO2 and 95% humidity.
The effect of the betulin derivatives on metabolic activity of Huh-7 cells was evaluated by measuring the intracellular ATP content of the cells after 24 h exposure to the compounds. In brief, cells were seeded at 20000 cells/well on white-walled microplates (PerkinElmer) and incubated at 37°C, 5% CO2 and 95% humidity. After culturing the cells overnight, the medium was replaced with the assay media (5% FBS) containing the sample and the cells were incubated for 24 h. Polymyxin B sulphate (15000 IU/mL) was used as a positive control. Following the incubation period, Promega’s CellTiter-Glo Cell Viability Assay was used to determine the intracellular ATP levels according to the manufacturer’s instructions. Cells were washed with 100 µL 6.7 mM PBS, pH 7.4 and 50 µL of fresh assay media and 50 µL of the CellTiter-Glo reagent were added into the wells. After 2 min shaking, followed by 10 min incubation at RT, luminometric signal was measured using Varioskan Flash plate reader (Thermo Fisher Scientific).

Row | SMILES | Inhibitory effect (%) E. coli ATCC 25922 (E. coli ATCC 25922) [%] | Inhibitory effect (%) P. aeruginosa ATCC 27853 (P. aeruginosa ATCC 27853) [%] | Inhibitory effect (%) S. aureus ATCC 25923 (S. aureus ATCC 25923) [%] | Inhibitory effect (%) E. faecalis ATCC 29212 (E. faecalis ATCC 29212) | Inhibitory effect (%) E. aerogenes ATCC 13048 (E. aerogenes ATCC 13048) [%] | Inhibitory effect (%) C. albicans ATCC 90028 (C. albicans ATCC 90028) [%] | Cytotoxicity (%) Huh-7 cells (Huh-7 cells) [%]
1 | C=C(C)[C@@H]1CC[C@]2(C#N)CC[C@]3(C)[C@H](CC[C@@H]4[C@@]5(C)CC[C@H](OC(C)=O)C(C)(C)[C@@H]5CC[C@]43C)[C@@H]12 [Compound 33] | -4.6±3.3 | 3.6±3.9 | 20.5±52.1 | 49% and 49.2±2.2% | 11.4±4.2 | -51.2±39.1 | 21.6±17.0
2 | COc1cccc(-n2c(=O)n3n(c2=O)C2(C(C)C)CCC4(COC(C)=O)CCC5(C)C(=C42)C3CC2C3(C)CCC(OC(C)=O)C(C)(C)C3CCC25C)c1 (stereo not shown) [Compound 34] | 1.7±4.2 | 0.6±2.5 | 3.1±2.0 | 68.4±3.0% | 13.8±4.3 | -1.1±3.5 | 8.5±2.0
3 | CC(=O)OCC12CCC3(C(C)C)C1=C1C(CC4C5(C)CCC(OC(C)=O)C(C)(C)C5CCC4(C)C1(C)CC2)n1c(=O)n(-c2ccc4c(c2)CCC4)c(=O)n13 (stereo not shown) [Compound 36] | 2.6±2.1 | 5.8±0.7 | 6.1±1.7 | 62.0±1.9% | 14.5±1.3 | 10.7±4.8 | 7.9±2.2
4 | CC(=O)OCC12CCC3(C(C)C)C1=C1C(CC4C5(C)CCC(OC(C)=O)C(C)(C)C5CCC4(C)C1(C)CC2)n1c(=O)n(-c2ccc(F)cc2)c(=O)n13 (stereo not shown) [Compound 37] | 5.0±8.8 | 4.6±0.7 | 6.5±0.9 | 48.2±7.7% | 17.7±2.2 | 11.7±9.0 | 0.8±3.4
5 | CC(=O)OCC12CCC3(C(C)C)C1=C1C(CC4C5(C)CCC(OC(C)=O)C(C)(C)C5CCC4(C)C1(C)CC2)n1c(=O)n(-c2cccc(Cl)c2)c(=O)n13 (stereo not shown) [Compound 39] | 4.4±2.7 | 2.6±1.1 | 5.7±0.8 | 69.1±4.9% | 19.0±1.9 | 4.8±13.6 | 1.5±2.7
6 | CC(=O)OCC12CCC3(C(C)C)C1=C1C(CC4C5(C)CCC(OC(C)=O)C(C)(C)C5CCC4(C)C1(C)CC2)n1c(=O)n(Cc2ccccc2)c(=O)n13 (stereo not shown) [Compound 40] | -0.8±2.3 | 1.7±0.6 | 4.1±1.1 | 66.0±1.5% | 15.1±3.4 | 4.4±10.5 | 2.3±2.2
7 | CC(=O)OCC12CCC3(C(C)C)C1=C1C(CC4C5(C)CCC(OC(C)=O)C(C)(C)C5CCC4(C)C1(C)CC2)n1c(=O)n(-c2ccccc2)c(=O)n13 (stereo not shown) [Compound 41] | 7.1±1.0 | 1.3±0.4 | 12.7±1.6 | 52.4±7.2% | 18.6±5.6 | 15.0±14.3 | 1.3±4.4
8 | CCCCn1c(=O)n2n(c1=O)C1(C(C)C)CCC3(COC(C)=O)CCC4(C)C(=C31)C2CC1C2(C)CCC(OC(C)=O)C(C)(C)C2CCC14C (stereo not shown) [Compound 42] | 1.7±5.2 | 1.0±0.4 | 1.5±1.0 | 67.5±3.7% | 10.6±3.5 | -12.0±11.8 | -8.3±1.3
9 | CC(C)C12CCC3(CO)CCC4(C)C(=C31)C(CC1C3(C)CCC(O)C(C)(C)C3CCC14C)n1c(=O)n(-c3ccccc3)c(=O)n12 (stereo not shown) [Compound 44] | -1.0±0.3 | 3.3±1.1 | 5.7±2.2 | 57.1±7.1% | 11.7±1.1 | -25.4±8.0 | 2.8±5.3
10 | CCC(=O)OCC12CCC3(C(C)C)C1=C1C(CC4C5(C)CCC(OC(=O)CC)C(C)(C)C5CCC4(C)C1(C)CC2)n1c(=O)n(C)c(=O)n13 (stereo not shown) [Compound 45] | -4.3±7.0 | 3.7±1.2 | 0.7±3.8 | 41.6±2.8% | 10.8±6.9 | -30.7±19.4 | 11.1±5.1
11 | CCCC(=O)OCC12CCC3(C(C)C)C1=C1C(CC4C5(C)CCC(OC(=O)CCC)C(C)(C)C5CCC4(C)C1(C)CC2)n1c(=O)n(C)c(=O)n13 (stereo not shown) [Compound 46] | -2.1±6.4 | 5.2±0.7 | 2.5±3.1 | 44.8±2.8% | 7.4±5.9 | -56.1±14.6 | 6.4±2.9
12 | CC(C)C(=O)OCC12CCC3(C(C)C)C1=C1C(CC4C5(C)CCC(OC(=O)C(C)C)C(C)(C)C5CCC4(C)C1(C)CC2)n1c(=O)n(C)c(=O)n13 (stereo not shown) [Compound 47] | -3.8±4.2 | 1.4±0.8 | 2.9±1.0 | 47.8±1.3% | 9.6±1.7 | 12.0±12.7 | -4.9±2.2
13 | CC(C)C12CCC3(COC(=O)C4CCCCC4)CCC4(C)C(=C31)C(CC1C3(C)CCC(OC(=O)C5CCCCC5)C(C)(C)C3CCC14C)n1c(=O)n(C)c(=O)n12 (stereo not shown) [Compound 48] | -5.5±1.9 | 7.1±1.7 | 5.0±4.2 | 56.3±1.8% | 12.1±2.2 | -39.6±25.9 | -10.8±1.9
